Assay results reported in US6177572A, “Solid and liquid-phase synthesis of benzoxazoles and benzothiazoles and their use” (Sepracor, Inc., priority 1997, dated 2001).

What was measured:
Assay type in all cases: cell-based
[1] = tested on: Saccharomyces; experiment: Modified Kirby-Bauer Assay Against Saccharomyces; conditions: 10 mg/ml
Protocol: (§1) Modified Kirby-Bauer Susceptibility Testing (see, e.g., Finegold et al. "Diagnostic Microbiology," 6th Ed., C. V. Mosby Co., St. Louis, (1982), pp. 542-543: Microorganisms are grown on a solid medium in order to ensure a pure homogeneous culture. This requires an 18-24 hour grow out. Once purity is determined, the microorganism is sub-cultured by picking off one to three colonies from the solid medium using a sterile loop, and placing the colonies onto an appropriate liquid medium (e.g., Brain Heart Infusion for bacteria and Sabouraud's Dextrose for yeast or fungi). The microorganisms are then allowed to grow for 4-6 hours at the appropriate atmospheric and temperature conditions. After the 4-6 hour grow out, the microorganisms are ready for testing.
(§2) The MacFarland standard is prepared by mixing Barium Chloride with sulfuric acid in the appropriate proportions, as is known in the art (see, e.g. Finegold et al., supra). Once the cultures have been standardized, sterile cotton swabs are used to apply the microorganisms to agar plates for testing. The plates are swabbed in three different directions, rotating the plates 60 each time. After the microorganisms have been applied to the plate, 10-12 paper disks (1/4") in diameter are spaced evenly around the plate. […] The zones are measured in millimeters and recorded. […]

[2] = tested on: Candida; experiment: Modified Kirby-Bauer Assay Against Candida; conditions: 10 mg/ml
Protocol: as §1, §2

[3] = tested on: E. Coli; experiment: Modified Kirby-Bauer Assay Against E. Coli; conditions: Escherichia coli, control, 10 mg/ml, read-out: zone size of inhibited microbial growth (diameter), control
Protocol: as §1, §2

[4] = tested on: Staphylococcus aureus; experiment: Modified Kirby-Bauer Assay Against Staphylococcus aureus; conditions: read-out: zone size of inhibited microbial growth (diameter), control
Protocol: as §1, §2

Row | Structure (SMILES) | zone size of inhibited microbial growth (diameter), control [1] | zone size of inhibited microbial growth (diameter), control [2] | zone of inhibition at 10000 µg/mL [3] | zone of inhibition at 10000 µg/mL [4]
1 | CCC(C)n1ncn(-c2ccc(N3CCN(c4ccc(OCC5COC(Cn6cncn6)(c6ccc(Cl)cc6Cl)O5)cc4)CC3)cc2)c1=O (single isomer, unassigned; (+)) [(+) cis-itraconazole] | 12 mm | 12 mm | – | –
2 | CCC(C)n1ncn(-c2ccc(N3CCN(c4ccc(OCC5COC(Cn6cncn6)(c6ccc(Cl)cc6Cl)O5)cc4)CC3)cc2)c1=O (single isomer, unassigned; (-)) [(-) cis itraconazole] | 15 mm | 15 mm | – | –
3 | CN(C)C1C(O)=C(C(N)=O)C(=O)C2(O)C(O)=C3C(=O)c4c(O)cccc4C(C)(O)C3CC12 (stereo not drawn) [Tetracylcine] | – | – | 22 mm | 25 mm
